Laboratory results taken from US11357806B2, “Method of isolating sphingolipids from cordyceps and their use” (Macau University of Science and Technology, priority 2015, dated 2022).
Where two headings read alike, the source gives them in different places.

How the values were obtained:
[1] = tested on: LPS-induced splenic lymphocytes; experiment: LPS-induced primary splenocyte proliferation model (MTT, immunosuppressive activity assay); format: cell-based, ICR mice; settings: Mus musculus, Splenic lymphocyte, LPS 2.5 mg/L, 48 h culture, read-out: IC50 (concentration that reduced cell proliferation by 50%)
Description: (§1) Male ICR mice (Weight, 10 to 22 g) were provided by the Comparative Medicine Center of Yangzhou University. The animal studies were approved by the Animal Ethics Committee of China Pharmaceutical University. The animals were cared for according to the regulations of the Animal Committee.
(§2) ICR mice were killed by cervical dislocation, and the spleens were removed aseptically. Mononuclear cell suspensions were prepared and re-suspended in RPMI 1640 medium (containing 10% FBS). The resulting splenic lymphocytes suspensions (4×10^6 cells/mL) were cultured in 96-well plate (100 μL suspensions each well). In the control group, 100 μL 10% FBS in RPMI1640 was added into each well (five replicates of wells). In the LPS or Con A model group, 100 μL LPS or Con A (2.5 mg/L of final concentration) was added into each well (five replicates of wells). For the positive drug treatment group, 50 μL of LPS or Con A (2.5 mg/L of final concentration) and 50 μL of FTY720 with a set of final concentrations (0.001, 0.003, 0.01, 0.03, 0.1, 0.3, 1, 3 and 10 μM) were added into each well. In the test group, 50 μL of LPS or Con A (2.5 mg/L of final concentration) and 50 μL of the four SPL fractions with a set of final concentrations were added into each well. […] Then the OD490 readings were taken with a microplate reader (Bio Tek, Tigan Street Winooski, Vt., USA). […]

[2] = tested on: Con A-induced splenic lymphocytes; experiment: Con A-induced primary splenocyte proliferation model (MTT, immunosuppressive activity assay); format: cell-based, ICR mice; settings: Mus musculus, Splenic lymphocyte, Con A 2.5 mg/L, 48 h culture, read-out: IC50 (concentration that reduced cell proliferation by 50%)
Description: as §1, §2

Q: Which results are given for `CCCCCCCCc1ccc(CCC(N)(CO)CO)cc1` [FTY720]?
A: IC50 [1]: 0.15 µg/mL; IC50 ([1]; value in brackets): 430 nM; IC50 [2]: 0.11 µg/mL; IC50 ([2]; value in brackets): 310 nM
